The record followed here is ChEMBL document CHEMBL3421586, “1,19-seco-Avermectin analogues from a ΔaveCDE mutant Streptomyces avermectinius strain” (J Nat Prod, 2015).

A word on the pIC50: it is the IC50 on a negative log10 scale, so that one unit is a factor of ten. High values mean a small IC50, low ones a large IC50.

Holding throughout (assay type): functional, cell-based
The nature of experiment [1]: Growth inhibition of human MG63 cells by MTT method. As to conditions: MG-63. For orientation: Formazan colour is commonly taken as a measure of viable cells.
A short description of experiment [2]: Growth inhibition of human Saos2 cells by MTT method. The conditions noted are these: SAOS-2.
The subject of a further experiment is B16. Nature of the experiment: Growth inhibition of mouse B16 cells by MTT method.

pIC50: −log10 of the molar value. Counter-ions that a name gives are not always drawn.

For `CC[C@H](C)[C@H]1O[C@@]2(CCC[C@@H](C/C=C(\C)[C@@H](O)[C@@H](C)/C=C/C=C(\C)c3cc(O)c(C)cc3C(=O)O)O2)C[C@H](O)[C@@H]1C`, the pIC50 was 5.29 in experiment [1], 5.72 in experiment [2] and 4.83 with B16.

For `CC[C@H](C)[C@H]1O[C@@]2(CCC[C@@H](C/C=C(\C)[C@@H](O[C@H]3C[C@H](OC)[C@@H](O)[C@H](C)O3)[C@@H](C)/C=C/C=C(\C)c3cc(O)c(C)cc3C(=O)O)O2)C[C@H](O)[C@@H]1C`, the pIC50 in experiment [1] is 5.77; in experiment [2] it was 6.15; in the experiment on B16, 4.39.

Take `CC[C@H](C)[C@H]1O[C@@]2(C=CC[C@@H](C/C=C(\C)[C@@H](O)[C@@H](C)/C=C/C=C(\C)c3cc(O)c(C)cc3C(=O)O)O2)C=C[C@@H]1C`: the pIC50 in experiment [1] was 5.16; in experiment [2], 5.60; with B16, 4.45.

For the compound `CC[C@H](C)[C@H]1O[C@]2(C=C[C@@H]1C)C[C@@H]1C[C@@H](C/C=C(\C)[C@@H](O[C@H]3C[C@H](OC)[C@@H](O[C@H]4C[C@H](OC)[C@@H](O)[C@H](C)O4)[C@H](C)O3)[C@@H](C)/C=C/C=C3\CO[C@@H]4[C@H](O)C(C)=C[C@@H](C(=O)O1)[C@]34O)O2` [ABAMECTIN COMPONENT B1A], the values for the pIC50 (in experiment [1]; in experiment [2]; with B16) were 5.07, 4.83 and 4.69, respectively.

`COc1cccc2c1C(=O)c1c(O)c3c(c(O)c1C2=O)C[C@@](O)(C(=O)CO)C[C@@H]3O[C@H]1C[C@H](N)[C@H](O)[C@H](C)O1` [DOXORUBICIN HYDROCHLORIDE]: the pIC50 in experiment [1] is 5.28; in experiment [2], 5.38; with B16, 5.19.
